Entries after “also recorded” stand apart in the source; their conditions may differ. One block for each compound: values may come before it.
Key:
[1] = system: Atoh1-GFP inner ear epithelial cells; test: Spontaneous hair cell differentiation of cultured Atoh1-nGFP inner ear epithelial cells; type: cell-based, mouse
[2] = system: Lgr5+ supporting cells isolated from the cochlea; test: Expansion of Lgr5-GFP inner ear progenitor cells in Matrigel based 3D culture; type: cell-based, mouse; settings: for GFP+ cell number / GFP+ percentage: named factor removed from EFICVP6, 10 days; for Lgr5-GFP expression, effect of addition / cell proliferation, effect of addition: neonatal Lgr5 inner ear progenitor cells
Experimental: Cell culture: Heterozygous Lgr5-EGFP-IRES-CreERT2 mice were obtained from Jackson Labs, and neonatal P2-P5 mice were used for cell isolation. Organ of Corti was isolated from Lgr5-GFP mice and further dissociated into single cells using trypsin. Cells were then cultured as previously described (Yin et al, 2014). Briefly, cells were entrapped in Matrigel and plated at the center of wells in a 24-well plate. Following polymerization of Matrigel, 500 μl of culture media (Advanced DMEM/F12 with N2 and B27) was added, containing growth factors including EGF (50 ng/ml) (epidermal growth factor), bFGF (20 ng/ml) (fibroblast growth factor), and IGF1 (50 ng/ml) (insulin-like growth factor 1), and small molecules including CHIR99021 (5 μM), valproic acid (1 mM), 2-phospho-L-ascorbic acid (280 μM), and 616452 (2 μM). Y-27632 (10 μM) was added for the first 2 days. In some experiments, bFGF was used at 50 ng/ml.
For single cell isolation, the organs of Corti were then treated with Cell Recovery Solution (Corning) for 1 h to separate cochlear epithelium from the underlying mesenchyme. Epithelia were then collected and treated with Trypsin (Life Technologies) for 15-20 minutes at 37° C. Single cells obtained by mechanical trituration were filtered by cell strainer (40 μm) and washed with cell culture media. For FACS sorting of Lgr5-high and Lgr5-Low cells, FACS ARIA (BD) was used and Lgr5-GFP was used as indicator of Lgr5 level. Sorted single cells were cultured in Matrigel in inner ear cell culture media with supplement growth factors and small molecules. Y-27632 was added in the first 2 days.
FACS analysis: Cell culture media was removed and Trypsin was added. After incubation at 37° C. for 10-20 min, colonies were dissociated into single cells. Live-cell number were counted using a hemocytometer and trypan blue staining. The cells were then stained with propidium iodide (PI) and analyzed with flow cytometry. The number of GFP-positive cells was calculated by multiplying the total number of cells by the percentage of GFP-positive cells.

[3] = In vitro drug release from poloxamer-407 hydrogel (dialysis bag method); type: physicochemical; settings: for initial burst release / cumulative release: pH 7.4, 37° C.; for cumulative release: in 48 h
Experimental: To understand the release kinetics of encapsulated drugs from poloxamer-407 hydrogels, in vitro release studies were performed using dialysis bag method at pH 7.4 and 37° C. temperature conditions. Briefly, sealed dialysis bag (3.5-5 kDa cutoff) containing 30 μL gel suspended in 1 ml PBS was placed in 10 mL of the release medium (PBS). The release medium was stirred at 100 rpm to prevent the formation of a stagnant layer at the membrane and outer solution interface. 1 mL aliquots were taken from the medium at predetermined intervals for the analysis of drugs using HPLC, and replaced with an equal volume of fresh medium.

[4] = system: expanded Lgr5-positive cells; test: Differentiation of expanded Lgr5-positive cells to hair cells; type: cell-based, mouse; settings: in differentiation media
Experimental: Differentiation protocol: For differentiation of expanded Lgr5-positive cells, following 10 days of culture in the cell expansion condition (EFICVP6), the cell colonies were transferred to fresh Matrigel and further cultured in differentiation media. Differentiation media contains Notch pathway inhibitor (e.g. DAPT, D, 5 μM, or LY411575, LY, 5 μM), with or without Gsk3β inhibitor (e.g. CHIR99021). Media were changed every other day. Following another 6-10 days of incubation with differentiation media, the colonies were harvested for qPCR analysis or fixed with 4% PFA and immunostained with hair cell markers Myo7a and Prestin.
RNA extraction and quantitative real-time PCR (qPCR): RNA was isolated from cultured cells (RNeasy Mini Kit; Qiagen) according to the manufacturer's protocol. Quantitative real-time PCR was performed with QuantiTect Probe PCR kit (Qiagen) using commercially available primers and TaqMan probes (Myo7a and Hprt Life Technologies).
Immunocytochemistry staining: Colonies were fixed at room temperature in 4% paraformaldehyde/PBS for 15-20 min and then washed twice with PBS containing 0.1% BSA. Cells were then permeabilized with 0.25% Triton X-100 in PBS in 4° C. for 30 minutes. Following 2 washes with PBS containing 0.1% BSA, the cells were incubated with blocking solution (Power Block, Biogenex) for 1 h. Diluted primary antibodies (in Power Block solution) was applied for 4 h at room temperature or overnight at 4° C. Primary antibodies used were Myosin VIIA (1:500, Rabbit polyclonal from Proteus Biosciences) and Prestin (1:400, Goat polyclonal from Santa Cruz). After 3 washes for 5 minutes each, secondary antibodies (Alexafluor 594 and 647-conjugated; Invitrogen) were added at 1:500 dilution and incubated at room temperature for 30 minutes. Nuclei were visualized with 4,6-diamidino-2-phenylindole (DAPI, Vector Laboratories). Staining was visualized with inverted fluorescence microscope (EVOS; Advanced Microscopy Group).

CBA/CaJ mice = test: Hearing recovery in noise-deafened mice (auditory brainstem responses); type: in vivo, mouse; settings: 5, 10, 20, 28.3 and 40 kHz, p<0.05
Experimental: A 17% (w/w) stock solution of poloxamer 407 gel (Sigma-Aldrich) was prepared by slowly adding it to cold 1× phosphate-buffered saline at pH 7.4. This solution is liquid when refrigerated or at room temperature but solidifies at body temperature. The gel was tinted blue with Evans blue dye (50 ppm) for visualization during administration.
A formulation was prepared as described in Example 4 with 527 mM VPA and 2.975 mM CHIR in 17% Poloxamer 407 with 5% DMSO (“VPA/CHIR”). For comparison, a Notch inhibitor, LY411575, was prepared at 4 mM in 17% Poloxamer 407 with 5% DMSO (“LY411575”). Additionally, a vehicle-only control of 17% Poloxamer 407 with 5% DMSO was prepared (“Control”).
CBA/CaJ mice were deafened in a noise chamber by exposure to an 8-16 kHz octave band noise band for 2 hours at 120 dB SPL. 24 hours after noise exposure, their hearing was assessed by measuring auditory brainstem responses (ABRs). The minimum sound pressure level (SPL) required for visual detection of ABR Wave I was determined at 5, 10, 20, 28.3, and 40 kHz. Following ABR measurements, a trans-tympanic injection of a Poloxamer gel drug mixture (described above as “VPA/CHIR”, “LY411575”, or “Control”) was delivered to fill the middle ear cavity. After 30 days, ABR was assessed and the improvement in hearing threshold from 24 hrs to 30 days after noise exposure was determined.

[5] = system: Lgr5 inner ear cells from adult mice; test: Expansion of Lgr5-GFP inner ear cells from adult mice; type: cell-based; settings: adult mouse
Experimental: FIGS. 13A-C depict In vitro culture of Lgr5-GFP inner ear progenitor cells from adult mouse. FIG. 13A: Isolated cochlear from 9-week old mice was cultured in the presence of EFICVP6 for 9 days. Showing out-growth of Lgr5-GFP cells. FIG. 13B: The same culture at day 13. Showing expansion of Lgr5-GFP cells. FIG. 13C: Passage 2 of the same culture at day 5 after passage (Day 19). All scale bars: 100 μm. Specifically, cochlear was isolated from 9-week old adult mice, directly mixed with Matrigel and plated at the center of well of a 24-well plate. Cell culture medium in the presence of EGF, bFGF, IGF-1, CHIR99021, VPA, L-Ascorbic acid 2-phosphate (pVc) and a TGF-β RI Kinase Inhibitor II (616452) was added following gelation of Matrigel. The tissue was cultured for 2 weeks until Lgr5-GFP cells expanded and form out-growth. After 2 weeks (Day 14) the tissue was then dissociated using trypsin, re-plated and further cultured.
For adult tissue, the stria vascularis was removed but the epithelium was not removed from the underlying mesenchyme due to the limited amount of intact cochlea that could be extracted. For adult cells, additional small molecule TTNPB (2 μM, Tocris) was added and the complete media contain EGF, bFGF, IGF-1, CHIR99021, VPA, pVc, 616452 and TTNPB.

[6] = Thermal gelation of poloxamer-407 formulations (visual tube inversion method); type: physicochemical
Experimental: Poloxamer-407 hydrogels were prepared using the “cold-method”. Briefly, a weighed amount of poloxamer-407 was added to 40 ml cold ultra pure water or cold PBS (pH 7.4), and stirred overnight at 4° C. on a magnetic stir plate to effect complete solubilization. Multiple concentrations of poloxamer-407 solution ranging from 18% (w/w) to 25% (w/w) were prepared. Hydrophilic drugs, including valproic acid (VPA) and phosphorylated ascorbic acid (PAC) were added to the 5 ml poloxamer-407 solution and dissolved at 4° C. on a magnetic stir plate. Weight ratio of poloxamer-407 to the drug was varied to understand the effects of drugs on the gelation properties of poloxamer-407, and to determine the optimal formulation that gels at 37° C. with maximum possible loading of the hydrophilic drugs. The gelation temperatures of the formulations were determined by the “visual tube inversion method”. Briefly, glass vials containing poloxamer 407 solutions, with or without the hydrophilic drugs were placed in a water bath.
To encapsulate hydrophobic drugs, including CHIR 99021 (CHIR), Repsox and TTNPB, appropriate volumes from their stock solutions in DMSO were added into the poloxamer-407 solutions containing the hydrophilic drugs, and mixed by pipetting at 4° C. […] Gelation temperature of the formulation was determined by the “visual tube inversion method”, as described before.

[7] = factor removed from the culture medium
[8] = named factor removed, versus EFICVP6

initial burst release ([3]; in 2 h): 10% | cumulative release [3]: 33%
SMILES: Cc1c[nH]c(-c2cnc(NCCNc3ccc(C#N)cn3)nc2-c2ccc(Cl)cc2Cl)n1 [CHIR, 6-[[2-[[4-(2,4-dichlorophenyl)-5-(5-methyl-1H-imidazol-2-yl)-2-pyrimidinyl]amino]ethyl]amino]-3-pyridinecarbonitrile]
differentiation to Atoh-1+ cells [1]: can promote differentiation to Atoh-1+ cells | importance of the factor for Lgr5-GFP expression [2, 7]: critical for cell proliferation and GFP expression; also recorded: greatly impacted GFP expression; also recorded: greatest effect on Lgr5 expression; also recorded: important to promote cell proliferation and GFP expression | importance of the factor for cell proliferation [2, 7]: critical for cell proliferation and GFP expression; also recorded: greatly impacted cell proliferation; also recorded: greatest effect on proliferation; also recorded: important to promote cell proliferation and GFP expression | GFP+ cell number [2]: ~65 cells | GFP+ percentage [2]: 1.3% | decrease of GFP+ cell number [2, 8]: ~4000 fold | decrease of GFP+ percentage [2, 8]: ~50 fold | decrease of total cell number [2, 8]: ~100 fold | effect on differentiation of hair cells [4]: increases the differentiation efficiency of a Notch inhibitor

concentration that inhibited gelation of poloxamer-407 solution [6]: > 14000 µg/mL
SMILES: O=C1O[C@H]([C@@H](O)CO)C(O)=C1OP(=O)(O)O [pVc, 2-phospho-L-ascorbic acid]
importance of the factor for Lgr5-GFP expression [2, 7]: greater impact on GFP maintenance; also recorded: greatly reduced Lgr5 expression; also recorded: important to promote GFP maintenance | GFP+ cell number [2]: 1.1×10^5 cells | GFP+ percentage [2]: 25% | decrease of GFP+ cell number [2, 8]: 2 fold | decrease of GFP+ percentage [2, 8]: 2 fold | Lgr5-GFP expression, effect of addition [2]: promoted GFP expression from Lgr5-GFP inner ear progenitor cells; also recorded: promotes GFP expression | cell proliferation, effect of addition [2]: increases cell proliferation of Lgr5 inner ear progenitor cells | effect on differentiation of hair cells [4]: inhibit the differentiation of hair cells

Second part, the compound before the results:

SMILES: C[C@H](NC(=O)[C@@H](O)c1cc(F)cc(F)c1)C(=O)N[C@@H]1C(=O)N(C)c2ccccc2-c2ccccc21 [LY411575, N-2((2S)-2-(3,5-difluorophenyl)-2-hydroxyethanoyl)-N 1-((7S)-5-methyl-6-oxo-6,7-dihydro-5H-dibenzo[b,d]azepin-7-yI)-1-alaninamide]
hearing recovery (CBA/CaJ mice): significant recovery at 10 kHz, 28.3 KHz, and 40 kHz

SMILES: C/C(=C\c1ccc(C(=O)O)cc1)c1ccc2c(c1)C(C)(C)CCC2(C)C [TTNPB]
GFP+ colony formation [5]: formation of GFP^+ colonies | proliferation of adult Lgr5 cells [5]: increase cell proliferation; also recorded: significantly promoted the proliferation of cultured cells; also recorded: promote the proliferation of adult Lgr5 inner ear progenitor cells | Lgr5-GFP expression, effect of addition [2]: didn't increase GFP expression | cell proliferation, effect of addition [2]: increased cell proliferation; also recorded: slightly increased cell proliferation

SMILES: CCCC(CCC)C(=O)O [VPA, 2-propylpentanoic acid]
spontaneous differentiation of hair cells ([1]; Atoh1-nGFP mouse line, 7 days): inhibited the differentiation of inner ear progenitor cells towards Atoh1 positive hair cells; also recorded: suppressed spontaneous differentiation of hair cells; also recorded: functions through suppressing differentiation | importance of the factor for Lgr5-GFP expression [2, 7]: important for GFP expression; also recorded: greater impact on GFP maintenance; also recorded: greatly reduced Lgr5 expression; also recorded: important to promote GFP maintenance | GFP+ percentage [2]: 28% | decrease of GFP+ cell number [2, 8]: 2 fold | decrease of GFP+ percentage [2, 8]: 2 fold | release kinetics [3]: significantly faster as compared to that of CHIR | initial burst release ([3]; in 0.5 h): 17% | cumulative release [3]: 98% | effect on differentiation of hair cells [4]: inhibit the differentiation of hair cells | concentration that inhibited gelation of poloxamer-407 solution [6]: greater than 88 mg/ml
